Assay results taken from patent publication US8030493B2, “Monovalent and divalent salts of N-(5-hydroxynicotinoil) -L-glutamic acid exhibiting psychotropic (antidepressant and anxiolytic), neuroprotective, geroprotective and cerebroprotective action” (Obschestvo S Ogranichennoy Otvetstvennostyu “Natsionalnaya …, priority 2006, dated 2011).

Key:
Assay type in all cases: in vivo
[1] = tested on: mice SAM P 10; experiment: Antidepressant activity: forced swimming in mice SAM; conditions: 10 mg/kg, first 6 minutes of forced swimming
Description: Exp. Gerontolol. 1997, […]. et al. Age-related deterioration in conditional avoidance task in the SAM-P/10 mouse, an animal model of spontaneous brain atrophy. Brain Res., 1993, v. 608, p. 266-272). To assess depressive condition the method of forced swimming was used (Porsolt R. D. et al., Behavioral despair in rats: a new model sensitive to antidepressant treatment. Europ. J. […] The mice were placed into cylinder 10 cm in diameter and 25 cm height. Cylinder was filled with water by 1⁄3 (27° C.). After unsuccessful attempts to get out of the water the animals have typical immovable posture, which is regarded as manifestation of “despair”.

[2] = tested on: mice exposed to hypobaric hypoxia; experiment: Acute hypobaric hypoxia in flow-exhaust chamber
Description: (§1) White nondescript male mice with body weight 22-28 g were used in the experiments. Each dose level was studied in 10 animals. Control animals received equivalent volume of distilled water. Nooglutyl was used as reference agent. Study compounds were administered intraperitoneally 40 minutes before the experiment.
(§2) Acute hypobaric hypoxia was simulated in flow-exhaust chamber. Pressure was measured with altimeter, and elevation speed with variometer. The animals were “elevated” at the speed 20 m/s to the stage at 11000 m. The exposure lasted 10 minutes. Then the animals were mover down to the baseline level for 5 minutes. Hypoxia with hypercapnia in hermovolume was created by placement of the animal into 200 ml hermetically sealed glass vessels. Life period of the animals under hypoxic conditions was recorded. Each group comprised 10 animals.

[3] = tested on: rats with amnesia; experiment: Antiamnestic activity: passive avoidance response (PAR) with amnesia by maximum electric shock; conditions: rats with electric shock amnesia, 24 hours after learning
Description: White nondescript male rats with body weight 250-280 g were used in the experiments. Each dose level was studied in 10 animals. Control animals received equivalent volume of distilled water. Nooglutyl was used as reference agent. Study compounds were administered intraperitoneally 40 minutes before the experiment. Experiment was carried out on the standard automated unit for passive avoidance response (Passive Avoidance) supplied by Lafayette Instrument Co., (USA) (Ader et al. Retention of a passive avoidance response as a function of the intensity and duration of electric shock. Psycho Sci. 1972, v. 26, p. 125-128; Voronina T. A. et al. “Textbook for Experimental (Preclinical Study) of novel pharmacological compounds”. Moscow, Medicina. 2005, p. 253-263 and 308-320). The unit was designed as small platform situated 1 m above the floor, which was illuminated with special lamp, and dark chamber with electrode floor connected with the platform. The rat was placed on illuminated platform in front of the entry to the dark chamber with its tail directed to the entry; the animal preferred dark chamber and quickly ran into it. In the dark chamber the animal received single pain stimulus with electric current (0.45 mA) and memorized that it was dangerous to enter dark chamber. Duration of the stimulus was determined from the running out of the animal from the dark chamber. To achieve amnesia maximum electric shock was used (50 Hz, 0.2 sec), which was made through corneal electrodes immediately after learning. Electric shock caused obliteration of the memory trace. Test for reproduction of passive avoidance response (PAR) (for retention of memory trace) was performed 24 hours after learning session and electric shock. The animal was placed on illuminated platform once again, and time of the presence on illuminated platform and dangerous dark chamber (no current was conducted to the floor during reproduction of PAR).
Control trained animals with reproduction of PAR without electric shock preferred to stay on illuminated platform. Obliteration of training with electric shock causes amnesia in the animals; as a result, the animals with short latent period enter dark chamber and stay there considerably longer than animals without amnesia (Table 2).

[4] = tested on: mice exposed to hypoxia in hermovolume; experiment: Hypoxia with hypercapnia in hermovolume
Description: as §1, §2

[5] = tested on: rats with hemorrhagic stroke; experiment: Hemorrhagic stroke: reproduction of passive avoidance response; conditions: Nimodipin at 01.mg/kg
Text: White nondescript male rats with body weight 200-250 g, which lived in vivarium and had feed (standard palletized feed) and water ad libitum, with natural alternation of day and night, were used in the experiments. Hemorrhagic stroke (local cerebral hemorrhage) was simulated according to method by A. N. Makarenko et al. (Method of local hemorrhage simulation I various structures of the brain in experimental animals. Journal Visshei Nervnoy Deyatelnosti—Journal of Higher Nervous Activities, 2002, v. 52, No 6, p. 765-768). In nembutal-anesthetized rats (40 mg/kg, i.m.) destruction of the brain tissue in capsule interna area was made with the use of special device (mandarin-knife) followed by application of blood (0.02-0.03 ml) taken from under the rat's tongue to the damaged area (within 2-3 minutes). False-operated animals underwent scalping and craniotomy. The animals were divided into 5 groups: intact rats, false-operated rats, animals with hemorrhagic stroke received nooglutyl at 20 mg/kg, and animals with hemorrhagic stroke received Compound I at 20 mg/kg. Effects were recorded within 24 hours and 14 days after the surgery. Learning ability and memory of the rats was examined in the model of passive avoidance response (PAR, Passive Avoidance supplied by Lafayette Instrument Co., USA). To determine neurological deficit in the animals Stroke-index McGrow scale modified by I. V. Gannushkina (Functional architectonics of the brain, Moscow, Medicina, 1977, 224 p.) was used. The severity of the condition was determined by the sum of the points. The number of rats with mild symptoms up to 2.5 points of Stroke-index scale (apathy, weakness of the extremities, unilateral semiptosis, tremor, circus movements) and severe manifestations of neurological disorders (3 to 10 points)—paresis of the extremities, palsy of low extremities, lateral position. The animals received single dose of nooglutyl and Compound I at the same dose 20 mg/kg intraperitoneally within 3-3.5 hours after the surgery. Controlled animals were treated with saline. At onset of the experiment each group comprised 15-20 animals. Mortality of the rats was recorded throughout the observation period (14 days). Statistical analysis was made using parametrical and non-parametrical methods and Biostat software. Nimodipin administered at 01.mg/kg according to above scheme was considered as a standard.

[6] = 30 mg/kg intraperitoneally 40 minutes before the experiment
[7] = 60 mg/kg intraperitoneally 40 minutes before the experiment
[8] = 120 mg/kg intraperitoneally 40 minutes before the experiment
[9] = PAR reproduction within 24 hours
[10] = PAR reproduction within 14 days

| Structure (SMILES) | Period of active behaviour [1] [s] | Life interval of mice (minutes) exposed to hypobaric hypoxia [2, 6] [min] | Life interval of mice (minutes) exposed to hypobaric hypoxia [2, 7] [min] | Time of presence of animals while PAR reproduction (seconds) in the dark chamber ([3]; 25 mg/kg intraperitoneally) [s] | Time of presence of animals while PAR reproduction (seconds) on the illuminated platform ([3]; 25 mg/kg intraperitoneally) [s] | Time of presence of animals while PAR reproduction (seconds) in the dark chamber ([3]; 50 mg/kg intraperitoneally) [s] | Time of presence of animals while PAR reproduction (seconds) on the illuminated platform ([3]; 50 mg/kg intraperitoneally) [s] | Life interval of mice (minutes) exposed to hypoxia in hermovolume [4, 6] [min] | Life interval of mice (minutes) exposed to hypoxia in hermovolume [4, 7] [min] | Life interval of mice (minutes) exposed to hypoxia in hermovolume [4, 8] [min] | Latent period of entry to dark chamber (c) [5, 9] [c] | Number of animals, which did not enter dark chamber (%) [5, 9] [%] | Latent period of entry to dark chamber (c) [5, 10] [c] | Number of animals, which did not enter dark chamber (%) [5, 10] |
| --- | --- | --- | --- | --- | --- | --- | --- | --- | --- | --- | --- | --- | --- | --- |
| CN(C)CCC=C1c2ccccc2CCc2ccccc21 [Amitryptilin, reference compound] | 225.10 ± 25.19 | – | – | – | – | – | – | – | – | – | – | – | – | – |
| O=C([O-])CC[C@H](NC(=O)c1cncc(O)c1)C(=O)[O-].[Na+].[Na+] [Compound II, di-Na salt of N-(5-hydroxynicotinoyl)-L-glutamic acid] | – | 6.51 ± 0.82 | 5.95 ± 0.84 | 78.7 ± 12.3 | 41.3 ± 11.6 | 67.5 ± 15.1 | 52.5 ± 12.3 | 14.1 ± 0.71 | 16.3 ± 0.64 | 17.8 ± 0.69 | – | – | – | – |
| O=C([O-])CC[C@H](NC(=O)c1cncc(O)c1)C(=O)[O-].[K+].[K+] [Compound III, di-K salt of N-(5-hydroxynicotinoyl)-L-glutamic acid] | – | 3.91 ± 0.63 | 5.52 ± 0.54 | 70.7 ± 9.4 | 49.3 ± 10.1 | 68.6 ± 7.1 | 51.4 ± 9.8 | 14.2 ± 0.39 | 15.9 ± 0.45 | 17.4 ± 0.65 | – | – | – | – |
| COCCOC(=O)C1=C(C)NC(C)=C(C(=O)OC(C)C)C1c1cccc([N+](=O)[O-])c1 (centres unmarked) [Nimodipin] | – | – | – | – | – | – | – | – | – | – | 123.7 ± 19.6 | 58 | 77.5 ± 32.8 | 33$ % |
